Test results: patent US11649255B2, “Indazoles as hematopoietic progenitor kinase 1 (HPK1) inhibitors and methods using same” (1st Biotherapeutics, Inc., priority 2020, dated 2023)

Target: recombinant human HPK1 (Homo sapiens (Human), UniProt Q92918)
Assay: HPK1 kinase assay (ADP-Glo)
Format: biochemical
Conditions: 25 μM ATP, MBP substrate
Outline: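 Activity was read as ADP formed, detected by ADP-Glo luminescence after the reaction of 5 ng recombinant human HPK1 with MBP and ATP (stocks 0.5 μg/μl and 25 μM) for 40 min at 30 °C. Buffer was Tris pH 7.5 with MgCl2, BSA and DTT, with compound in 0.5% DMSO. IC50 came from inhibition curves.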

Chain of recombinant human HPK1 (Q92918 whole entry): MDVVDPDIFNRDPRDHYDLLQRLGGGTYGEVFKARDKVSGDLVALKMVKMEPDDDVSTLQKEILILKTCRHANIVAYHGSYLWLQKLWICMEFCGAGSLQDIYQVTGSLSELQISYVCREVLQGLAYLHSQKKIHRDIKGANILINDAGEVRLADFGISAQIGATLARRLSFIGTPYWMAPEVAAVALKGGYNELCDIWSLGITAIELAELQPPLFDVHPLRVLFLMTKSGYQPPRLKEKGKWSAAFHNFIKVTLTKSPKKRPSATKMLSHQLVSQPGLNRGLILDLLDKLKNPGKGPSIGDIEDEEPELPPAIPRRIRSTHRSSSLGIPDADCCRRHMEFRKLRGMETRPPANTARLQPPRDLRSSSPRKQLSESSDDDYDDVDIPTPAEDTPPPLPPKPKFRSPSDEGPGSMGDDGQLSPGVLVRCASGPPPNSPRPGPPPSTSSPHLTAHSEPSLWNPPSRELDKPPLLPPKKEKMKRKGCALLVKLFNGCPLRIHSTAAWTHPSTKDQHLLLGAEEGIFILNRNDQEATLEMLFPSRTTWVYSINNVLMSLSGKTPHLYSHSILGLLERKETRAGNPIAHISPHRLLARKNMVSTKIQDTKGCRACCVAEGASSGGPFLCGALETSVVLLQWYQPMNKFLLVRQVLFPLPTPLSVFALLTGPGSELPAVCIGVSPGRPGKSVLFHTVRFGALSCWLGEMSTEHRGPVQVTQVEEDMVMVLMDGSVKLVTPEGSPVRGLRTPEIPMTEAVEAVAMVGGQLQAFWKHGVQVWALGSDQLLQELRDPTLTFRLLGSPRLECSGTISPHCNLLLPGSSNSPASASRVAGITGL

Compound | IC50 [nM]
Cc1c(F)c(C(=O)O)c2[nH]ncc2c1-c1ccc2nc(NC(=O)[C@@H]3C[C@@H]3F)sc2n1 [Example 188, 6-fluoro-4-(2-((1S,2S)-2-fluorocyclopropane-1-carboxamido)thiazolo[5,4-b]pyridin-5-yl)-5-methyl-1H-indazole-7-carboxylic acid] | > 1000
COc1c(F)c(C)c(-c2ccc3nc(NC(=O)[C@@H]4C[C@@H]4F)sc3c2)c2cn[nH]c12 [Example 97, (1S,2S)-2-fluoro-N-(6-(6-fluoro-7-methoxy-5-methyl-1H-indazol-4-yl)benzo[d]thiazol-2-yl)cyclopropanecarboxamide] | < 100
Cc1c(F)c(C(=O)O)c2[nH]ncc2c1-c1ccc2nc(NC(=O)[C@@H]3C[C@@H]3F)cn2c1 [Example 313, 6-fluoro-4-(2-((1S,2S)-2-fluorocyclopropane-1-carboxamido)imidazo[1,2-a]pyridin-6-yl)-5-methyl-1H-indazole-7-carboxylic acid] | > 1000
CC(=O)NCCSc1c(F)c(Cl)c(-c2ccc3nc(NC(=O)[C@@H]4C[C@@H]4F)sc3c2)c2cn[nH]c12 [Example 73, (1S,2S)-N-(6-(7-((2-acetamidoethyl)thio)-5-chloro-6-fluoro-1H-indazol-4-yl)benzo[d]thiazol-2-yl)-2-fluorocyclopropane-1-carboxamide] | < 100
Cc1c(F)c(Br)c2[nH]ncc2c1-c1ccc2nc(NC(=O)[C@@H]3C[C@@H]3F)cn2c1 [Example 268, (1S,2S)-N-(6-(7-bromo-6-fluoro-5-methyl-1H-indazol-4-yl)imidazo[1,2-a]pyridin-2-yl)-2-fluorocyclopropane-1-carboxamide] | < 100
CCN(C)c1c(F)c(SC)c(-c2ccc3nc(NC(=O)[C@@H]4C[C@@H]4F)sc3n2)c2cn[nH]c12 [Example 218, (1S,2S)-N-(5-(7-(ethyl(methyl)amino)-6-fluoro-5-(methylthio)-1H-indazol-4-yl)thiazolo[5,4-b]pyridin-2-yl)-2-fluorocyclopropane-1-carboxamide] | < 100
COc1c(F)cc2[nH]ncc2c1-c1ccc2nc(NC(=O)C3CC3)cn2c1 [Example 252, N-(6-(6-fluoro-5-methoxy-1H-indazol-4-yl)imidazo[1,2-a]pyridin-2-yl)cyclopropanecarboxamide] | < 100
CNC(=O)c1c(F)c(Cl)c(-c2ccc3nc(NC(=O)[C@@H]4C[C@@H]4F)cn3c2)c2cn[nH]c12 [Example 321, 5-chloro-6-fluoro-4-(2-((1S,2S)-2-fluorocyclopropane-1-carboxamido)imidazo[1,2-a]pyridin-6-yl)-N-methyl-1H-indazole-7-carboxamide] | < 100
CCOc1c(F)cc2[nH]ncc2c1-c1ccc2nc(NC(=O)[C@@H]3C[C@@H]3F)cn2c1 [Example 328, (1S,2S)-N-(6-(5-ethoxy-6-fluoro-1H-indazol-4-yl)imidazo[1,2-a]pyridin-2-yl)-2-fluorocyclopropane-1-carboxamide] | < 100
COC(=O)c1c(F)c(C)c(-c2ccc3nc(NC(=O)[C@@H]4C[C@@H]4F)sc3n2)c2cn[nH]c12 [Example 183, methyl 6-fluoro-4-(2-((1S,2S)-2-fluorocyclopropane-1-carboxamido)thiazolo[5,4-b]pyridin-5-yl)-5-methyl-1H-indazole-7-carboxylate] | < 100
O=C(Nc1cn2cc(-c3cccc4[nH]ncc34)ccc2n1)[C@@H]1C[C@@H]1F [Example 222, (1S,2S)-N-(6-(1H-indazol-4-yl)imidazo[1,2-a]pyridin-2-yl)-2-fluorocyclopropane-1-carboxamide] | 501 to 1000
O=C(Nc1cn2cc(-c3c(Cl)c(F)c(F)c4[nH]ncc34)ccc2n1)[C@@H]1C[C@@H]1F [Example 323, (1S,2S)-N-(6-(5-chloro-6,7-difluoro-1H-indazol-4-yl)imidazo[1,2-a]pyridin-2-yl)-2-fluorocyclopropane-1-carboxamide] | < 100

Next, values leading:

IC50 [nM] | Compound
< 100 | C[C@@H](c1c(F)c(Cl)c(-c2ccc3nc(NC(=O)[C@@H]4C[C@@H]4F)cn3c2)c2cn[nH]c12)n1cnnn1 [Example 414, (1S,2S)-N-(6-(7-((S)-1-(1H-tetrazol-1-yl)ethyl)-5-chloro-6-fluoro-1H-indazol-4-yl)imidazo[1,2-a]pyridin-2-yl)-2-fluorocyclopropane-1-carboxamide]
< 100 | O=C(Nc1cc2cc(-c3c(Cl)c(F)c(NC4CCC(O)C4)c4[nH]ncc34)ccn2n1)[C@@H]1C[C@@H]1F (stereo partly drawn) [Example 559, (1S,2S)-N-(5-(5-chloro-6-fluoro-7-((3-hydroxycyclopentyl)amino)-1H-indazol-4-yl)pyrazolo[1,5-a]pyridin-2-yl)-2-fluorocyclopropane-1-carboxamide]
< 100 | Cc1c(F)c(Cl)c2[nH]ncc2c1-c1ccn2nc(NC(=O)[C@@H]3C[C@@H]3F)cc2c1 [Example 479, (1S,2S)-N-(5-(7-chloro-6-fluoro-5-methyl-1H-indazol-4-yl)pyrazolo[1,5-a]pyridin-2-yl)-2-fluorocyclopropane-1-carboxamide]
< 100 | CC(C#N)Nc1c(F)c(Cl)c(-c2ccc3nc(NC(=O)[C@@H]4C[C@@H]4F)cn3c2)c2cn[nH]c12 (stereo partly drawn) [Example 371, (1S,2S)-N-(6-(5-chloro-7-((1-cyanoethyl)amino)-6-fluoro-1H-indazol-4-yl)imidazo[1,2-a]pyridin-2-yl)-2-fluorocyclopropane-1-carboxamide]
< 100 | COc1cc(C)c(-c2ccn3nc(NC(=O)[C@@H]4C[C@@H]4F)cc3c2)c2cn[nH]c12 [Example 506, (1S,2S)-2-fluoro-N-(5-(7-methoxy-5-methyl-1H-indazol-4-yl)pyrazolo[1,5-a]pyridin-2-yl)cyclopropane-1-carboxamide]
101 to 500 | CNC(=O)c1c(F)c(C)c(-c2ccn3nc(NC(=O)[C@@H]4C[C@@H]4F)cc3c2)c2cn[nH]c12 [Example 584, 6-fluoro-4-(2-((1S,2S)-2-fluorocyclopropane-1-carboxamido)pyrazolo[1,5-a]pyridin-5-yl)-N,5-dimethyl-1H-indazole-7-carboxamide]
< 100 | C[C@@H]1[C@H](C(=O)Nc2cc3cc(-c4c(Cl)c(F)c(N(C)C)c5[nH]ncc45)ccn3n2)[C@H]1c1cnn(C)c1 [Example 648, (1S,2S,3S)-N-(5-(5-chloro-7-(dimethylamino)-6-fluoro-1H-indazol-4-yl)pyrazolo[1,5-a]pyridin-2-yl)-2-methyl-3-(1-methyl-1H-pyrazol-4-yl)cyclopropane-1-carboxamide]
< 100 | O=C(Nc1cn2cc(-c3c(Cl)c(F)c(Cn4ncnn4)c4[nH]ncc34)ccc2n1)[C@@H]1C[C@@H]1F [Example 379, (1S,2S)-N-(6-(7-((2H-tetrazol-2-yl)methyl)-5-chloro-6-fluoro-1H-indazol-4-yl)imidazo[1,2-a]pyridin-2-yl)-2-fluorocyclopropane-1-carboxamide]
< 100 | COC(=O)c1c(F)c(Cl)c(-c2ccn3nc(NC(=O)[C@@H]4C[C@@H]4F)cc3c2)c2cn[nH]c12 [Example 554, methyl 5-chloro-6-fluoro-4-(2-((1S,2S)-2-fluorocyclopropane-1-carboxamido)pyrazolo[1,5-a]pyridin-5-yl)-1H-indazole-7-carboxylate]
101 to 500 | O=C(Nc1cn2cc(-c3c(Cl)c(F)c(-c4cnc[nH]4)c4[nH]ncc34)ccc2n1)[C@@H]1C[C@@H]1F [Example 431, (1S,2S)-N-(6-(5-chloro-6-fluoro-7-(1H-imidazol-5-yl)-1H-indazol-4-yl)imidazo[1,2-a]pyridin-2-yl)-2-fluorocyclopropane-1-carboxamide]
